Reference: patent US10441593B2, “Treatment of pain associated with dislocation of endometrium” (PREGLEM S.A., priority 2010, dated 2019)

Test system: patients with uterine fibroids and adenomyosis or endometriosis
Experiment: Clinical study: 5 mg or 10 mg ulipristal on pain in patients with adenomyosis or endometriosis (Example 2)
Assay type: in vivo, human
Set-up: key to PBAC score at the end of treatment (week 13): PBAC score; normal <75, >100 menorrhagia; higher is worse; key to A(SF-MPQ) Score: SF-MPQ Part A pain score; lower score is better; key to B(VAS) Score / B(VAS) CFB: SF-MPQ Part B VAS pain score; lower score is better
Description: Different parameters were assessed before treatment (Baseline) and after the end of treatment (13 weeks): • The PBAC score (Pictorial Blood Loss Assessment Chart) gives an estimation of the menstrual blood loss. This score was measured before treatment and continuing up to week 13 of treatment. Normal menstrual bleeding score is <75. Abnormal bleeding (menorrhagia) is characterized by a PBAC score >100. Higher the score, worse is the bleeding. • The Uterine volume was estimated before treatment (Baseline Uterine volume) and the % change in uterine volume was reported at the end of the treatment (week 13). • The SF-M P QPart A (short form of the Mc Gill Pain questionnaire) was used as a measure of the sensory, affective and intensity dimensions of pain. The pain was estimated before treatment and the change was reported at the end of the treatment (week 13). (NOTE: The lowest is the score, the better it is). • The SF-MPQ Part B (short form of the Mc Gill Pain questionnaire) wherein the pain is assessed with a visual analogue scale (VAS) before treatment and the change was reported at the end of the treatment (week 13). (NOTE: The lowest is the score, the better it is). • Discomfort questionnaire (disease specific quality of life questionnaire) estimating the quality of life before treatment and the change was reported at the end of the treatment (week 13). (NOTE: The lowest is the score, the better it is). • The level of Hb (Hemoglobin) was measured before treatment and at the end of the treatment. (NOTE: the higher it is, the better it is.) 3. Results
A double-blinded, randomized, study evaluating the effect of long term oral administration of 5 mg or 10 mg ulipristal in patients with heavy menstrual bleeding and pain.
The control group consisted of patients treated with GnRH agonist.
These patients included women 36 years of age or older with evidence of uterine fibroids and adenomyosis or endometriosis diagnosed by ultrasound.
Patient 210/5252 (candidate having adenomyosis) received a daily dose of 5 mg ulipristal (Esmya®) for 13 weeks and was followed up to week 38. A myomectomy by laparotomy was conducted after Week 13 visit.
Patient 281/5214 (candidate having endometriosis) received a daily dose of 5 mg ulipristal (Esmya®) for 13 weeks and was followed up to week 38.
Patient 210/5095 (candidate having adenomyosis) received a daily dose of 10 mg ulipristal (Esmya®) for 13 weeks and was followed up to week 38. A hysterectomy by laparoscopy was conducted after Week 13 visit.
Patient 210/5308 (candidate having endometriosis) received a daily dose of 10 mg ulipristal (Esmya®) for 13 weeks and was followed up to week 38. A myomectomy by hysteroscopy was conducted after Week 13 visit.
A myomectomy by laparoscopy and hysteroscopy was conducted between Week 26 & 38 visits.
Patient 250/5090 (candidate having endometrioma) received a daily dose of 10 mg ulipristal (Esmya®) for 13 weeks and was followed up to week 38.

[1] = 5 mg/day 13 weeks, patient 210/5252, adenomyosis, Week 5
[2] = 5 mg/day 13 weeks, patient 210/5252, adenomyosis, Week 13
[3] = 5 mg/day 13 weeks, patient 210/5252, adenomyosis, Week 26 follow-up, myomectomy by laparotomy after Week 13
[4] = 5 mg/day 13 weeks, patient 210/5252, adenomyosis, Week 38 follow-up, myomectomy by laparotomy after Week 13
[5] = 5 mg/day 13 weeks, patient 210/5252, adenomyosis, week 9
[6] = 5 mg/day 13 weeks, patient 281/5214, endometriosis, Week 5
[7] = 5 mg/day 13 weeks, patient 281/5214, endometriosis, Week 13
[8] = 5 mg/day 13 weeks, patient 281/5214, endometriosis, Week 17 follow-up, no surgery
[9] = 5 mg/day 13 weeks, patient 281/5214, endometriosis, Week 26 follow-up, no surgery
[10] = 5 mg/day 13 weeks, patient 281/5214, endometriosis, Week 38 follow-up, no surgery
[11] = 5 mg/day 13 weeks, patient 281/5214, endometriosis, week 9
[12] = 10 mg/day 13 weeks, patient 210/5095, adenomyosis, Week 5
[13] = 10 mg/day 13 weeks, patient 210/5095, adenomyosis, Week 13
[14] = 10 mg/day 13 weeks, patient 210/5095, adenomyosis, Week 17 follow-up, hysterectomy by laparoscopy after Week 13
[15] = 10 mg/day 13 weeks, patient 210/5095, adenomyosis, Week 26 follow-up, hysterectomy by laparoscopy after Week 13
[16] = 10 mg/day 13 weeks, patient 210/5095, adenomyosis, Week 38 follow-up, hysterectomy by laparoscopy after Week 13
[17] = 10 mg/day 13 weeks, patient 210/5095, adenomyosis, week 9
[18] = patient 210/5095, 10 mg, adenomyosis and uterine fibroids

SMILES: CC(=O)O[C@]1(C(C)=O)CC[C@H]2[C@@H]3CCC4=CC(=O)CCC4=C3[C@@H](c3ccc(N(C)C)cc3)C[C@@]21C [Ulipristal, 17α-acetoxy-11β-[4-N,N-dimethylamino-phenyl)-19-norpregna-4,9-diene-3,20-dione]
- A(SF-MPQ) CFB [1]: −2
- A(SF-MPQ) Score [1]: 14
- B(VAS) CFB [1]: 21
- B(VAS) Score [1]: 64
- PBAC CFB [1]: 150
- PBAC Score [1]: 375
- % Change in Uterine Volume [2]: 6.6%
- A(SF-MPQ) CFB [2]: −3
- A(SF-MPQ) Score [2]: 9
- B(VAS) CFB [2]: −6
- B(VAS) Score [2]: 37
- PBAC CFB [2]: −101
- PBAC Score [2]: 124
- Uterine Volume [2]: 251.7 cm3
- A(SF-MPQ) CFB [3]: −4
- A(SF-MPQ) Score [3]: 8
- B(VAS) CFB [3]: 24
- B(VAS) Score [3]: 67
- PBAC CFB [3]: 530
- PBAC Score [3]: 755
- A(SF-MPQ) CFB [4]: −3
- A(SF-MPQ) Score [4]: 9
- B(VAS) CFB [4]: 27
- B(VAS) Score [4]: 70
- PBAC CFB [4]: 46
- PBAC Score [4]: 271
- A(SF-MPQ) CFB [5]: −1
- A(SF-MPQ) Score [5]: 11
- B(VAS) CFB [5]: 14
- B(VAS) Score [5]: 57
- PBAC CFB [5]: 58
- PBAC Score [5]: 283
- A(SF-MPQ) CFB [6]: −3
- A(SF-MPQ) Score [6]: 1
- B(VAS) CFB [6]: −17
- B(VAS) Score [6]: 3
- PBAC CFB [6]: −174
- PBAC Score [6]: 46
- % Change in Uterine Volume [7]: 21.3%
- A(SF-MPQ) CFB [7]: −4
- A(SF-MPQ) Score [7]: 0
- B(VAS) CFB [7]: −20
- B(VAS) Score [7]: 0
- PBAC CFB [7]: −220
- PBAC Score [7]: 0
- Uterine Volume [7]: 159.1 cm3
- % Change in Uterine Volume [8]: 12.6%
- Uterine Volume [8]: 147.7 cm3
- % Change in Uterine Volume [9]: −21.2%
- B(VAS) CFB [9]: 53
- B(VAS) Score [9]: 73
- PBAC CFB [9]: −168
- PBAC Score [9]: 52
- Uterine Volume [9]: 102.2 cm3
- % Change in Uterine Volume [10]: −24.6%
- A(SF-MPQ) CFB [10]: −4
- A(SF-MPQ) Score [10]: 0
- B(VAS) CFB [10]: −20
- B(VAS) Score [10]: 0
- PBAC CFB [10]: 351
- PBAC Score [10]: 571
- Uterine Volume [10]: 98.9 cm3
- A(SF-MPQ) CFB [11]: −4
- A(SF-MPQ) Score [11]: 0
- B(VAS) CFB [11]: −20
- B(VAS) Score [11]: 0
- PBAC CFB [11]: −220
- PBAC Score [11]: 0
- A(SF-MPQ) CFB [12]: 14
- A(SF-MPQ) Score [12]: 0
- B(VAS) CFB [12]: −88
- B(VAS) Score [12]: 0
- PBAC CFB [12]: −532
- PBAC Score [12]: 328
- % Change in Uterine Volume [13]: −33.8%
- A(SF-MPQ) CFB [13]: −14
- A(SF-MPQ) Score [13]: 0
- B(VAS) CFB [13]: −88
- B(VAS) Score [13]: 0
- PBAC CFB [13]: −860
- PBAC Score [13]: 0
- Uterine Volume [13]: 284.7 cm3
- A(SF-MPQ) CFB [14]: −14
- A(SF-MPQ) Score [14]: 0
- A(SF-MPQ) CFB [15]: −14
- A(SF-MPQ) Score [15]: 0
- B(VAS) CFB [15]: −88
- B(VAS) Score [15]: 0
- PBAC Score [15]: 0
- A(SF-MPQ) CFB [16]: −14
- A(SF-MPQ) Score [16]: 0
- B(VAS) CFB [16]: −88
- B(VAS) Score [16]: 0
- A(SF-MPQ) CFB [17]: 14
- A(SF-MPQ) Score [17]: 0
- B(VAS) CFB [17]: −88
- B(VAS) Score [17]: 0
- PBAC CFB [17]: −860
- PBAC Score [17]: 0
- uterine volume at week 13 compared to baseline (3 of 4 patients (210/5095, 210/5308, 250/5090), 10 mg): decrease in uterine volume
- bleeding starting from week 9 [18]: did not bleed anymore
- pain starting from 5th week [18]: no pain anymore
- PBAC value at week 13 (patient 210/5308, 10 mg/day 13 weeks, endometriosis): 55
- pain at week 5, 9, 13 compared to baseline (patients 281/5214, 210/5095, 210/5308, 250/5090, 5 mg or 10 mg): improvement in pain
- PBAC score at the end of treatment (week 13) (patients 281/5214, 210/5095, 250/5090, 5 mg or 10 mg): 0
